Like-named read-outs stand apart in the source and are kept apart here.
What was measured:
Format in all cases: biochemical
Sirt2 = target: T1, Sirt2 (Homo sapiens, UniProt Q8IXJ6); experiment: Fluor-de-Lys peptide deacetylation assay, Sirt2
T1 sequence (Q8IXJ6 34-356): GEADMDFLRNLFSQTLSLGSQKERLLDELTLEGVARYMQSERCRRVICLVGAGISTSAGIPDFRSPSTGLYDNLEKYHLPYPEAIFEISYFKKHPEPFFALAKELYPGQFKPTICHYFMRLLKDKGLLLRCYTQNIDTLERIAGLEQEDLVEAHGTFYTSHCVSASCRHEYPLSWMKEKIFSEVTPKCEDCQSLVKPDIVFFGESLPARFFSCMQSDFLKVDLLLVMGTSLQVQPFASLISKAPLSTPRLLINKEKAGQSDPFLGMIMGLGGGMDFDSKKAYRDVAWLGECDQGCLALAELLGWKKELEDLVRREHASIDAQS
Experimental: The Sirt2 construct was expressed in E. coli Rosetta2 cells (Merck) in LB/Ampicillin/Chloramphenicol medium. Cells were grown at 37 °C, and expression induced at an OD600 of 0.6-0.8 for 4 h with 0.5 mM IPTG. Harvested cells were resuspended in buffer A (50 mM Tris/HCl pH 7.8, 200 mM NaCl, 2 mM DTT), disrupted with a Sonifier, and cell debris removed by 40 min centrifugation at 4 °C, 18000 rpm in a HFA22.50 rotor. The supernatant was supplemented with 10 mM imidazole and incubated with Ni-NTA resin for 1 h at 4 °C. […] The protein was concentrated in an amicon unit (Millipore, Billerica, USA) and digested over night at 4 °C with TEV-protease. The protease was removed from cleaved Sirt2 by incubation with Ni-NTA resin for 1 h at 4 °C. The protein was concentrated, 1:5 diluted with 50 mM Tris/HCl, pH 7.8, and applied to a HiTrap Q anion exchange column (GE Healthcare) equilibrated with 50 mM Tris/HCl, pH 7.8, 50 mM NaCl, 2 mM DTT and eluted with a gradient (20 column volumes) to 50 mM Tris/HCl, pH 7.8, 1 M NaCl, 2 mM DTT. Sirt2 was then applied to a Superdex200 gel filtration column (GE Healthcare) equilibrated in 20 mM Tris/HCl, pH 7.8, 150 mM NaCl, 2 mM DTT. The eluted protein was analyzed by SDS-PAGE, re-concentrated, and shock-frozen in liquid nitrogen for storage at -80 °C.
(§1) The commercial Fluor-de-Lys (FdL) assay kits 1 and 2 (Biomol, Plymouth Meeting, USA) were used to test the deacetylase activity of the four Sirtuins. In both kits the substrate derived from p53 is composed of three amino acids, the acetyl lysine and a C-terminally attached fluorophor. For Sirt2 and 3, FdL-2 peptide (QPK(acetyl-K)) was used, and FdL-1 peptide (RHK(acetyl-K)) for Sirt5 and Sirt6. All tests were done with 0.1 mM of the respective FdL peptide and 0.5 mM NAD^+ as substrates.
(§2) NCI compound stocks were prepared by dissolving them in DMSO at a concentration of 5 mM. The initial screens with all 40 compounds contained 5 μl Sirtuin solution (Sirt2/3 0.1 mg/ml stock concentration; Sirt5/6 1 mg/ml), 1 μl of compound stock (resulting in a 100 μM end concentration), 15 μl FdL substrate, and assay buffer (supplied in the assay kit) to a total volume of 50 μl. As control reactions, peptide with either the compound (without Sirtuin) or with Sirtuin and DMSO instead of compound were measured. After starting the reactions by adding the FdL substrate, assays were incubated for 30 min at 37 °C. Subsequently, 50 μl of a 10 mg/ml trypsin stock (“Developer solution”) were added and the reactions were incubated for 45 min at room temperature. Fluorescence values were measured in a fluorometric plate reader with excitation at 360 nm and read out at 485 nm. Values were then corrected with the control reaction (same compound, but without Sirtuin).
(§3) All measurements shown are averages of duplicates (screen) or triplicates (dose-response curves), and representatives of at least two independent replications. Error bars indicate standard deviations.

Sirt6 = target: T2, Sirt6 (Homo sapiens, UniProt Q8N6T7); experiment: Fluor-de-Lys peptide deacetylation assay, Sirt6
T2 construct: Sirt6 residues 13-308; His-tag with linker comprising a TEV protease cleavage site (N, cleaved yes); made in house; host or cells: E. coli Rosetta2
Experimental: as §1, §2, §3

Sirt3 = target: T3, Sirt3 (Homo sapiens, UniProt Q9NTG7); experiment: Fluor-de-Lys peptide deacetylation assay, Sirt3
T3 construct: Sirt3 residues 114-399; His-tag with linker comprising a TEV protease cleavage site (N); made in house; host or cells: E. coli
T3 sequence (Q9NTG7 114-399): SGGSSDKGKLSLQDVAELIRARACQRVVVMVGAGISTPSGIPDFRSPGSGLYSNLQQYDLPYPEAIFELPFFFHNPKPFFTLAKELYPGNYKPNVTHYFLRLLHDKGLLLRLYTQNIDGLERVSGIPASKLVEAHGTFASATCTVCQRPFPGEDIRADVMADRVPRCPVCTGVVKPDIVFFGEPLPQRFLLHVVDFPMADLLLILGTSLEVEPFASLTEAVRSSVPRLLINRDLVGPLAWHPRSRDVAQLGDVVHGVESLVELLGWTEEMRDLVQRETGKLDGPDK
Experimental: (§4) Sirt3 was expressed in E. coli and purified via Ni-NTA and size exclusion chromatography as described elsewhere, and Sirt5 according to the protocol of Schuetz et al.. […] The protein was bound to the HiTrapQ column in buffer A and eluted in a gradient to buffer A supplemented with 400 mM KCl. Fractions were analyzed by SDS-PAGE, and the Sirt1 fractions were pooled and transferred into buffer A using a NAP column (GE Healthcare).
as §1, §2, §3

Sirt5 = target: T4, Sirt5 (Homo sapiens, UniProt Q9NXA8); experiment: Fluor-de-Lys peptide deacetylation assay, Sirt5
T4 construct: Sirt5 residues 34-302; His-tag with linker comprising a TEV protease cleavage site (N); made in house
T4 sequence (Q9NXA8 34-302): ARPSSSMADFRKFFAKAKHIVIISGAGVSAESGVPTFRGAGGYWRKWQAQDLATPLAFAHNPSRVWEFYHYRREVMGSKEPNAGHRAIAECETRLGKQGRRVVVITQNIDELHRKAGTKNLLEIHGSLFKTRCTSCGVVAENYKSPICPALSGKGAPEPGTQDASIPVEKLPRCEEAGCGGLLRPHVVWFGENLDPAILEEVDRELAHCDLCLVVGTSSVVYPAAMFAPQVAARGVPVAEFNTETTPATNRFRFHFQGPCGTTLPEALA
Experimental: as §4, §1, §2, §3

[1] = 100 μM compound, 0.1 mM FdL-2 peptide, 0.5 mM NAD+
[2] = 100 μM compound, 0.1 mM FdL-1 peptide, 0.5 mM NAD+

T2 sequence (Q8N6T7 13-308): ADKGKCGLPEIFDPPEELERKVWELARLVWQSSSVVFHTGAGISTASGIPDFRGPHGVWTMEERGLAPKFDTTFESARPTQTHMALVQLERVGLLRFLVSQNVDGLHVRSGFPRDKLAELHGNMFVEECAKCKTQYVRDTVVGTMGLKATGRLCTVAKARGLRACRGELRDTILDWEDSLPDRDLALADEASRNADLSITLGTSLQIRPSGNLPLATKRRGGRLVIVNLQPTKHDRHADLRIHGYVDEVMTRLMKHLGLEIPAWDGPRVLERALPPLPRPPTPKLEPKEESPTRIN

Compound | Effect on the activity of Sirt2 (Sirt2) | Effect on the activity of Sirt6 (Sirt6) | Effect on the activity of Sirt3 (Sirt3) | Effect on the activity of Sirt5 (Sirt5) | Effect on the activity of Sirt2 (Sirt2; [1]) | Effect on the activity of Sirt6 (Sirt6; [2]) | Effect on the activity of Sirt3 (Sirt3; [1]) | Effect on the activity of Sirt5 (Sirt5; [2])
C[C@]12CC[C@H]3[C@@H](CCC4=CC(=O)CC[C@@H]43)[C@@H]1CCC2OC1(O)C(=O)c2ccccc2C1=O (stereo partly drawn) [CSC16, 2-hydroxy-2-((3-oxoestr-4-en-17-yl)oxy)-1H-indene-1,3(2H)-dione] | --- (key: inhibition: significant inhibitory effects (>25% loss of activity); ---: no such effect) | --- (key: inhibition: significant inhibitory effects (>25% loss of activity); ---: no such effect) | --- (key: inhibition: significant inhibitory effects (>25% loss of activity); ---: no such effect) | --- (key: inhibition: significant inhibitory effects (>25% loss of activity); ---: no such effect) | – | – | – | –
O=C(Nc1ccc(Nc2ccc3c(c2)C(=O)c2ccccc2C3=O)c2c1C(=O)c1ccccc1C2=O)c1ccccc1 [CSC17, N-(4-((9,10-dioxo-9,10-dihydro-2-anthracenyl)amino)-9,10-dioxo-9,10-dihydro-1-anthracenyl)benzamide, (Indanthrene Corinth RK)] | – | – | – | – | --- (no such effect) | --- (no such effect) | --- (no such effect) | --- (no such effect)
c1ccc(CN2COc3c(ccc4c5c(ccc34)CN(Cc3ccccc3)CO5)C2)cc1 [CSC18] | – | – | – | – | --- (no such effect) | --- (no such effect) | --- (no such effect) | --- (no such effect)
O=C1c2ccccc2C(C2c3ccccc3C(=O)c3cc(Br)ccc32)c2ccc(Br)cc21 (stereo not drawn) [CSC19] | – | – | – | – | --- (no such effect) | --- (no such effect) | --- (no such effect) | --- (no such effect)
O=C1c2ccccc2C(=O)N1c1ccc(Cc2ccc(N3C(=O)c4ccccc4C3=O)cc2)cc1 [CSC20, 2-(4-(4-(1,3-dioxo-1,3-dihydro-2H-isoindol-2-yl)benzyl)phenyl)-1H-isoindole-1,3(2H)-dione] | – | – | – | – | --- (no such effect) | --- (no such effect) | --- (no such effect) | --- (no such effect)
CN1C[C@H](C(=O)N[C@]2(C)O[C@@]3(O)[C@@H]4CCCN4C(=O)[C@H](Cc4ccccc4)N3C2=O)C=C2c3cccc4[nH]cc(c34)C[C@H]21 [CSC21, 5'-benzyl-12'-hydroxy-2'-methyl-3',6',18-trioxoergotaman, (Ergotamine), reference compound] | inhibition (key: inhibition: significant inhibitory effects (>25% loss of activity); ---: no such effect) | inhibition (key: inhibition: significant inhibitory effects (>25% loss of activity); ---: no such effect) | --- (key: inhibition: significant inhibitory effects (>25% loss of activity); ---: no such effect) | inhibition (key: inhibition: significant inhibitory effects (>25% loss of activity); ---: no such effect) | – | – | – | –
N=C(c1ccc2ccccc2c1)c1ccccc1Cc1ccccc1 [CSC22, (2-benzylphenyl)(2-naphthyl)methanimine] | – | – | – | – | inhibition (significant inhibitory effects (>25% loss of activity)) | --- (no such effect) | --- (no such effect) | --- (no such effect)
Cc1cc(C)cc(C(=N)c2ccccc2Cc2cccc3ccccc23)c1 [CSC23, (3,5-dimethylphenyl)(2-(1-naphthylmethyl)phenyl)methanimine] | – | – | – | – | inhibition (significant inhibitory effects (>25% loss of activity)) | --- (no such effect) | --- (no such effect) | --- (no such effect)
Cc1ccc(C(=N)c2ccccc2Cc2cccc3ccccc23)c2ccccc12 [CSC24, (4-methyl-1-naphthyl)(2-(1-naphthylmethyl)phenyl)methanimine] | – | – | – | – | inhibition (significant inhibitory effects (>25% loss of activity)) | --- (no such effect) | --- (no such effect) | --- (no such effect)
O=C1c2cccc([N+](=O)[O-])c2C(=O)N1c1ncn[nH]1 [CSC25, 4-(hydroxy(oxido)amino)-2-(1H-1,2,4-triazol-5-yl)-1H-isoindole-1,3(2H)-dione] | – | – | – | – | --- (no such effect) | --- (no such effect) | --- (no such effect) | --- (no such effect)
Cc1ccc(C2(C)CCC(=NN=C3CCC(C)(c4ccc(C)c(C)c4)c4cc(C)c(C)cc43)c3cc(C)c(C)cc32)cc1C (stereo not drawn) [CSC26, 4-(3,4-dimethylphenyl)-4,6,7-trimethyl-3,4-dihydro-1(2H)-naphthalenone (4-(3,4-dimethylphenyl)-4,6,7-trimethyl-3,4-dihydro-1(2H)-naphthalenylidene)hydrazone] | – | – | – | – | --- (no such effect) | --- (no such effect) | --- (no such effect) | --- (no such effect)
O=C1c2ccccc2C(=O)c2c1ccc(N1C(=O)c3ccccc3C1=O)c2-c1c(N2C(=O)c3ccccc3C2=O)ccc2c1C(=O)c1ccccc1C2=O [CSC27] | – | – | – | – | inhibition (significant inhibitory effects (>25% loss of activity)) | inhibition (significant inhibitory effects (>25% loss of activity)) | --- (no such effect) | --- (no such effect)

Source: paper PMC3227451, “Structure-based development of novel sirtuin inhibitors” (Aging (Albany NY), 2011)
